Data published in patent publication US5750556A, “2-(aminomethyl)-3,4,7,9-tetrahydro-2H-pyrano-[2,3-E]indol-8-ones and derivatives” (priority 1996, dated 1998).

Target: T1, dopamine D2 receptor (Rattus norvegicus, UniProt P61169)
T1 construct: from tissue; host or cells: limbic brain tissue, homogenate
Assay: [3H]-spiperidone binding, limbic brain homogenate (D2 Spiper)
Conditions: homogenized limbic brain tissue
Protocol: High affinity for the dopamine D2 receptor was established by the standard experimental test procedure of Fields, et al., Brain Res., 136, […] (1977) and Yamamura et al., ed., Neurotransmitter Receptor Binding, Raven Press, N.Y. (1978) wherein homogenized limbic brain tissue is incubated with [^3 H]-spiperidone at various concentrations of test compound, filtered washed, and shaken with Hydrofluor scintillation cocktail (National Diagnostics) and counted in a Packard 460 CD scintillation counter.

T1 sequence (P61169 whole entry): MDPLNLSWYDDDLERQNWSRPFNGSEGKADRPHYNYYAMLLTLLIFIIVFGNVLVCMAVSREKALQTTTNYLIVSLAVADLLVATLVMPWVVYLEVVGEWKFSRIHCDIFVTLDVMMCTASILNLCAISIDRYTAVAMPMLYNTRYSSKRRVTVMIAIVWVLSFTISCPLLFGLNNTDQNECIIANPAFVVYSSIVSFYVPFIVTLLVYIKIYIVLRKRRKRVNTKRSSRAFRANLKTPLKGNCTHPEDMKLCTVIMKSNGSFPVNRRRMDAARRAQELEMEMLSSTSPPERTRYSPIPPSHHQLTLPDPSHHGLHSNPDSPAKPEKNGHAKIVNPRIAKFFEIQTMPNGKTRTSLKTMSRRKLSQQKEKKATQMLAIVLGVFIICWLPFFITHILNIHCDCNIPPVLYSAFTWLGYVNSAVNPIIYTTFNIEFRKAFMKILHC

Row | IC50 [nM] | Compound
1 | 71.5 | O=C1Cc2c(ccc3c2OC(CNCc2ccccc2)CC3)N1 (single isomer, unassigned; (-)) [Example 2b, (-)-2-(benzylamino-methyl)-3,4,7,9-tetrhydro-2H-pyrano[2,3-e]indol-8-one]
2 | 734 | O=C1Cc2c(ccc3c2OC(CNCc2ccccc2)CC3)N1 (single isomer, unassigned; (+)) [Example 2a, (+)-2-(benzylamino-methyl)-3,4,9-tetrhydro-2H-pyrano[2,3-e]indol-8-one]
3 | 103 | Cc1ccc(CNCC2CCc3ccc4c(c3O2)CC(=O)N4)cc1 (stereo not drawn) [Example 1d, 2-(4-Methyl-benzylamino-methyl)-3,4,7,9-tetrahydro-2H-pyrano[2,3-e]indol8-one]
4 | 310 | O=C1Cc2c(ccc3c2OC(CNCc2ccc(F)cc2)CC3)N1 (stereo not drawn) [Example 1b, 2-(4-Fluoro-benzylamino-methyl)-3,4,7,9-tetrahydro-2H-pyrano[2,3-e]indol-8-one]
5 | 148 | O=C1Cc2c(ccc3c2OC(CNCc2ccc(Cl)cc2)CC3)N1 (stereo not drawn) [Example 1e, 2-(4-Chloro-benzylamino-methyl)-3,4,7,9-tetrahydro-2H-pyrano[2,3-e]indol-8-one]
6 | 295 | COc1ccc(CNCC2CCc3ccc4c(c3O2)CC(=O)N4)cc1 (stereo not drawn) [Example 1c, 2-(4-Methoxy-benzylamino-methyl)-3,4,7,9-tetrahydro-2H-pyrano[2,3e]indol-8-one]
7 | 142 | O=C1Cc2c(ccc3c2OC(CNCc2ccccc2)CC3)N1 (stereo not drawn) [Example 1a, 2-(Benzylamino-methyl)-3,4,7,9-tetrahydro-2H-pyrano-[2,3-e]indol-8-one]

Row | Compound | IC50 [nM]
8 | Cc1ccc(CNCC2CCc3ccc4c(c3O2)CC(=O)N4)c(C)c1 (stereo not drawn) [Example 1f, 2-(2,4-Dimethyl-benzylamino-methyl)-3,4,7,9-tetrahydo-2H-pyrano[2,3-e]indol-8-one] | 392

Target: T2, dopamine autoreceptor (D2 Quin.) (Rattus norvegicus, UniProt P61169)
T2 construct: homogenized rat striatal brain tissue is incubated; from tissue; host or cells: rat striatum, homogenate
T2 sequence (P61169 whole entry): as above
Assay: [3H]-quinpirole binding, rat striatal homogenate (D2 Quin., dopamine autoreceptor affinity)
Conditions: homogenized rat striatal brain tissue, read-out: IC50 (nM) D2 Qmin.

Row | IC50 [nM] | Compound
9 | 0.65 | O=C1Cc2c(ccc3c2OC(CNCc2ccc(Cl)cc2)CC3)N1 (stereo not drawn) [Example 1e, 2-(4-Chloro-benzylamino-methyl)-3,4,7,9-tetrahydro-2H-pyrano[2,3-e]indol-8-one]
